The values below are quoted from earlier work in publication PMC3815949 (Microbial biotechnology, 2009).

For this data set, the system named is DmpA. The data set is classed as biochemical, Brucella anthropi.

For `NCCC(N)=O` [H-β-Ala-NH2], the Michaelis constant (Km) was ~1.5 mM. As to `N[C@@H](Cc1cnc[nH]1)C(=O)O` [L-histidine], the Michaelis constant (Km) is ~51 mM.

By Km is commonly meant the substrate concentration at which the rate is half of its maximum.
